SMILES strings stand for the structures. Where “and” joins values, the source holds several entries; their conditions need not be identical. Equal values may be shown once.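 Interpolation was linear, between the two tested concentrations surrounding the appropriate level; five concentrations were tested over 48 hours in 96-well plates. GI50 is the concentration that inhibits growth by half. TGI: concentration producing complete growth inhibition.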

The test system of one assay is OVCAR-4 ovarian. Description: inhibition of tumour cell growth, NCI panel, 48 h.
For the molecule `O=[N+]([O-])c1ccc(-c2cc3c(Nc4ccc(Cl)c(C(F)(F)F)c4)ncnc3s2)cc1`, the GI50 is 1.2 µM and the TGI is more than 100 µM.
`Cc1cc2c(cc1Cl)S/C(=C/C(=O)O)C(Nc1cccc3nsnc13)=NS2(=O)=O`: the GI50 is 18.7 µM and the TGI was 42.7 µM.
Consider `COc1ccc(F)c(F)c1C(=O)c1cnc(NC2CCN(S(C)(=O)=O)CC2)nc1N`, for which the GI50 is 1.44 µM and 1.41 µM; the TGI was more than 27.9 µM.
As for `Nc1cc(-c2ccc(Cl)cc2)nn1-c1nnc(/C=C/c2ccco2)c(=O)[nH]1`, the GI50 was 2.64 µM and the TGI stood at 13.4 µM.
For `Cc1c(C)c(CC(=O)N2CC2)c(C)c(C)c1CC(=O)N1CC1`, the TGI turned out to be 44.8 µM.
Turning to `O=C1c2ccccc2-c2c1c1c(NCCCO)nc3ccccc3c1n2Cc1ccccc1`, the GI50 was 23 µM and the TGI amounted to 57 µM.
As to `CCCCCCCCCCCCCCCCCCOCC(COCCOCC[N+]1(CCCCCC(=O)[O-])CCCC1)Oc1ncccn1` (stereo not given), the TGI was determined as 4.22 µM.
`CCOc1ccc(Nc2c3ccccc3nc3ccccc23)cc1`: the GI50 was 0.748 µM and 1.35 µM; the TGI is 7.36 µM and 10.8 µM.

The subject of a further assay is SK-MEL-2 melanoma. The assay is described as follows: inhibition of tumour cell growth, NCI panel, 48 h.
Take `O=C1/C(=C/c2ccc([N+](=O)[O-])cc2)COc2ccc(O)cc21`: the GI50 was 73 µM and the TGI is more than 100 µM.
With `CC(C)Oc1ccc(C(=O)Cn2ccnc2)cc1-n1c(CN2CCN(C(=O)COc3ccc(Cl)cc3)CC2)nc2ccccc2c1=O`, the GI50 was 17.6 µM and the TGI turned out to be 38.5 µM.
Turning to `COc1cccc(COc2cc(-n3cnc4ccccc43)sc2C(N)=O)c1`, the GI50 is more than 15.4 µM and the TGI is more than 25 µM.
For the molecule `CCN(CC)c1ccc(/C=C/C2=[N+](C)c3ccccc3C2(C)C)c(C)c1`, the GI50 is 0.0792 µM and the TGI worked out at 0.582 µM.
For the molecule `C=C1C(=O)C23C(O)C1CC[C@H]2C12CCCC(C)(COC(C)=O)[C@H]1[C@H](O)[C@]3(O)OC2` (stereo not given in full), the TGI was 3.49 µM.
Turning to `O=C(c1cccs1)C1NO[N+]([O-])=C1c1cccs1` (stereo not given), the GI50 is 11.2 µM and the TGI is 24.5 µM.
`CN1c2ccccc2SC2C(c3ccccc3)=NOC21` (stereo not given) registered a TGI of 73.9 µM.
For the molecule `COc1ccc(C2=C(N3CCc4ccccc43)C(=O)NC2=O)cc1`, the GI50 was more than 25 µM and the TGI is more than 25 µM.
Regarding `O=[N+]([O-])c1ccc(-c2cc3c(Nc4ccc(Cl)c(C(F)(F)F)c4)ncnc3s2)cc1`, the GI50 is 2.4 µM and the TGI amounted to 6.42 µM.
Take `Cc1cc2c(cc1Cl)S/C(=C/C(=O)O)C(Nc1cccc3nsnc13)=NS2(=O)=O`: the GI50 is more than 58.6 µM and the TGI is more than 77.8 µM.
As to `COc1ccc(F)c(F)c1C(=O)c1cnc(NC2CCN(S(C)(=O)=O)CC2)nc1N`, the GI50 is 1.07 µM and 1.15 µM; the TGI is 2.96 µM and 3.48 µM.
`Nc1cc(-c2ccc(Cl)cc2)nn1-c1nnc(/C=C/c2ccco2)c(=O)[nH]1`: the GI50 is 19 µM and the TGI was more than 88.3 µM.
`Cc1c(C)c(CC(=O)N2CC2)c(C)c(C)c1CC(=O)N1CC1` gave a TGI of 32.6 µM.
With `O=C1c2ccccc2-c2c1c1c(NCCCO)nc3ccccc3c1n2Cc1ccccc1`, the GI50 was 20.4 µM and the TGI worked out at 52.3 µM.
As to `CCCCCCCCCCCCCCCCCCOCC(COCCOCC[N+]1(CCCCCC(=O)[O-])CCCC1)Oc1ncccn1` (stereo not given), the TGI worked out at 20 µM.
Regarding `CCOc1ccc(Nc2c3ccccc3nc3ccccc23)cc1`, the GI50 was 0.402 µM and 0.413 µM; the TGI is 3.76 µM and 1.69 µM.

The subject of the next assay is SN12C renal. Description: inhibition of tumour cell growth, NCI panel, 48 h.
With `O=C1/C(=C/c2ccc([N+](=O)[O-])cc2)COc2ccc(O)cc21`, the GI50 is 2.22 µM and the TGI was 6.85 µM.
Regarding `CC(C)Oc1ccc(C(=O)Cn2ccnc2)cc1-n1c(CN2CCN(C(=O)COc3ccc(Cl)cc3)CC2)nc2ccccc2c1=O`, the GI50 was 14.6 µM and the TGI stood at 33.6 µM.
Regarding `COc1cccc(COc2cc(-n3cnc4ccccc43)sc2C(N)=O)c1`, the GI50 is more than 20.5 µM and the TGI was more than 25 µM.
Take `CCN(CC)c1ccc(/C=C/C2=[N+](C)c3ccccc3C2(C)C)c(C)c1`: the GI50 was 0.0738 µM and the TGI is 1.24 µM.
Consider `C=C1C(=O)C23C(O)C1CC[C@H]2C12CCCC(C)(COC(C)=O)[C@H]1[C@H](O)[C@]3(O)OC2` (stereo not given in full), for which the TGI is 3.44 µM.
Regarding `O=C(c1cccs1)C1NO[N+]([O-])=C1c1cccs1` (stereo not given), the GI50 is 9.49 µM and the TGI was determined as 21.8 µM.
The molecule `CN1c2ccccc2SC2C(c3ccccc3)=NOC21` (stereo not given) had a TGI of more than 100 µM.
Consider `COc1ccc(C2=C(N3CCc4ccccc43)C(=O)NC2=O)cc1`, for which the GI50 is more than 25 µM and the TGI is more than 25 µM.
Turning to `O=[N+]([O-])c1ccc(-c2cc3c(Nc4ccc(Cl)c(C(F)(F)F)c4)ncnc3s2)cc1`, the GI50 is 1.16 µM and the TGI was more than 100 µM.
Take `Cc1cc2c(cc1Cl)S/C(=C/C(=O)O)C(Nc1cccc3nsnc13)=NS2(=O)=O`: the GI50 is 27 µM and the TGI is more than 53.4 µM.
As for `COc1ccc(F)c(F)c1C(=O)c1cnc(NC2CCN(S(C)(=O)=O)CC2)nc1N`, the GI50 was 0.94 µM and 0.477 µM; the TGI is more than 100 µM.
In the case of `Nc1cc(-c2ccc(Cl)cc2)nn1-c1nnc(/C=C/c2ccco2)c(=O)[nH]1`, the GI50 was 18.5 µM and the TGI is more than 100 µM.
For `Cc1c(C)c(CC(=O)N2CC2)c(C)c(C)c1CC(=O)N1CC1`, the TGI was more than 56.7 µM.
In the case of `O=C1c2ccccc2-c2c1c1c(NCCCO)nc3ccccc3c1n2Cc1ccccc1`, the GI50 is 26 µM and the TGI was 62.5 µM.
`CCCCCCCCCCCCCCCCCCOCC(COCCOCC[N+]1(CCCCCC(=O)[O-])CCCC1)Oc1ncccn1` (stereo not given): the TGI was found to be 16.7 µM.
Consider `CCOc1ccc(Nc2c3ccccc3nc3ccccc23)cc1`, for which the GI50 is 1.08 µM and 1 µM; the TGI was 14.5 µM and 9.76 µM.

Values taken from PubChem BioAssay (NCI).
